Patent publication US4002674A (priority 1974, dated 1977)
Structures can show the parent of a compound that is named as a salt.

Experiments:
[1] = system: Newcastle disease virus (NDV); test: microbe, parasite or virus in culture; assay type: cell-based, Newcastle disease virus; chick embryo tissue culture; conditions: for inhibition at 4 µg/mL / inhibition at 8 µg/mL / inhibition at 16 µg/mL: avian paramyxovirus 1, in Gallus gallus, 48 h, read-out: % Inhibition of NDV Multiplications
[2] = antiviral activity in vivo; conditions: no test details given

| SMILES | inhibition at 4 µg/mL [1] [%] | inhibition at 8 µg/mL [1] [%] | inhibition at 16 µg/mL [1] [%] | antiviral activity compared with amantadine hydrochloride ([1]; in vitro, NDV, versus amantadine hydrochloride) | virus replication in the tissue culture ([1]; tissue culture containing above 4 μg/ml) | antiviral activity in vivo [2] |
| --- | --- | --- | --- | --- | --- | --- |
| COC(=O)C12CCCC3CC(CCC31)C2 (stereo not drawn) [VI, Methyl 4-homoisotwistane-3-carboxylate] | 0 | 91.2 | 99.4 | extremely superior | almost completely inhibited | potent antiviral activity in vivo |
| NC12CC3CC(CC(C3)C1)C2 [Amantadine . HCl, amantadine hydrochloride, reference compound] | 0 | 0 | 0 | – | – | – |
